Measurements taken from US20220202859A1, “CANCER TREATMENT USING CD38 INHIBITOR AND/OR LENALIDOMIDE AND T-CELLS EXPRESSING A CHIMERIC ANTIGEN RECEPTOR” (CRISPR THERAPEUTICS AG, priority 2020, published 2022).

T1: mouse BCMA (mouse, UniProt O88472 1-49, limits assumed)
T1 construct: also called murine BCMA
T1 chain (looked up): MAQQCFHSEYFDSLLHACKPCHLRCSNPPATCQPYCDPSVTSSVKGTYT

T2: biotinylated recombinant human BCMA (Acro Biosystems Cat: #BC7-H82F0) (human, UniProt Q02223 1-54, biotinylated)
T2 construct: Bought reagent
T2 sequence (looked up): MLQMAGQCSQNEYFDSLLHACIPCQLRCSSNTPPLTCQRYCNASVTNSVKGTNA


Key:
anti-BCMA CAR-T cells [1] = experiment: Lenalidomide on cytokine secretion of anti-BCMA CAR-T cells co-cultured with JeKo-1; type: cell-based, human; conditions: overnight culture with JeKo-1, 2:1 effector to target; all concentrations tested
Excerpt: Addition of Lenalidomide to the co-culture media led to enhanced cytokine secretion of multiple effector cytokines, among them IFN-γ and TNF-α following CAR-T cell engagement by the BCMA expressing target cell line (FIG. 1C).

NK cells [2] = experiment: NK cytotoxicity towards B2Mneg T cells with Lenalidomide; type: cell-based, human; conditions: overnight co-culture; wide range of Lenalidomide concentrations
Description: Two modes of allogenic immune recognition were tested: immune recognition of B2M^neg cells by NK cells, and immune recognition by allogenic T cells. Examination of the cytotoxic activity of NK cells towards B2M^neg cells was tested following overnight (ON) co-culture in varying concentrations of NK to T cells, and varying concentrations of Lenalidomide. Increasing concentration of NK to B2M^neg T cells led to an increase in the cytotoxic activity of NK cells towards B2M^neg T cells.

NK cells [3] = experiment: Cytokine secretion in co-culture of NK cells with B2Mneg T cells with Lenalidomide; type: cell-based, human
Description: (§1) Additionally, cytokine secretion was tested at the end of the co-culture described above, following co-culture of NK cells with B2M^neg T cells, K562 cells (a B2M^neg cell line, commonly used as a positive control for activation of NK cells due to lack of B2M expression), and unedited T cells (used as a negative control for NK cells activation).

NK cells [4] = experiment: Cytokine secretion in co-culture of NK cells with K562 cells with Lenalidomide; type: cell-based, human
Description: as §1

PBMCs = experiment: MLR assay (mixed lymphocyte reaction) with Lenalidomide; type: cell-based, human
Description: Next, allo-reactivity towards edited T cells (B2M^neg/TCR^neg) was tested using an MLR assay (mixed lymphocyte reaction). In this assay PBMCs (“responder cells”) were mixed with irradiated auto or allo T cells (“stimulator cells”). At the end of the assay, the activation of the responder cells was evaluated by measuring the cell proliferation in the co-culture, with cell proliferation serving as a proxy for immune activation. In the assay shown in FIG. 19C, both auto (donor 1) & allo (donor 2 & 3) were evaluated for immune activation following co-culture. […] As expected, immune activation was reduced upon deletion of B2M & TRAC from the T cells, as evident by the reduced proliferation in both donors tested.

anti-BCMA CAR-T cells [5] = experiment: Cytokine secretion of CAR-T cells produced in the presence of Lenalidomide, co-culture with JeKo-1; type: cell-based, human; conditions: Lenalidomide 0.5, 2 & 10 uM during ~10 day production; JeKo-1 at 0.5:1 effector to target, no Lenalidomide in assay
Description: PBMCs were thawed and activated by T cell activation agents to enrich for T cells. After 3 days, T cells were edited for B2M and TRAC knock-out using a CRISPR/Cas gene editing system. An anti-BCMA expression cassette (as an exemplary CAR construct) was knocked into the TRAC locus to produce anti-BCMA CAR-T cells. Following the editing procedure, resulting T cells were expanded in the presence of absence of Lenalidomide in a concentration of 0.5, 2, & 10 uM for approximately 10 days. The resulting cells were later evaluated for cytokine secretion following antigen stimulation, in the absence of Lenalidomide.
The inclusion of Lenalidomide […] led to enhanced cytokine secretion of multiple effector cytokines, among them IFN-γ and TNF-α, upon CAR-T engagement by the BCMA expressing target cell line (FIG. 20).

anti-BCMA CAR-T cells [6] = experiment: Impact of Lenalidomide on editing efficiency and CD4/CD8 ratio of CAR-T cells; type: cell-based, human; conditions: day 8
Description: Editing efficiency, including TRAC−%, B2M−% and CAR+% were assessed at day 7/8 and/or day 13/14 with anti-BCMA CAR-T cells. […] Anti-BCMA CAR-T cells were not harvested around day 14 due to slower growth rate. About 51-58% of CAR+%, 96% TRAC−% and 75-77% of B2M−% were detected from anti-BCMA CAR-T cells with or without Lenalidomide treatment.
CD4% and CD8% were assessed at day 7/8 and/or day 13/14 with the anti-BCMA CAR-T cells disclosed above. […] The anti-BCMA CAR-T cells were not assessed and harvested around day 14 due to slower expansion. Compared with Lenalidomide untreated anti-BCMA CAR-T cells, there was dose-dependent increase of CD8 positive cells, ranging from 7-15%. […] Expansion scale (small or medium) didn't impact the CD4 and CD8 phonotype.

[7] = lenalidomide-treated subjects; prescribing information; cited from earlier work
MM.1S tumors = experiment: Lenalidomide plus anti-BCMA CAR-T cells in MM.1S subcutaneous tumor model; conditions: single arm: 3 million CAR-T cells, or Lenalidomide 1.5 or 10 mg/kg
anti-BCMA CAR-T cells [8] = experiment: Lenalidomide on in vitro expansion and senescence (CD57) of anti-BCMA CAR-T cells
mouse BCMA = target: T1, mouse BCMA; experiment: not described (statement in Example 5)
[9] = target: T2, biotinylated recombinant human BCMA …; experiment: flow cytometry of CTX120 cells, detection of the surface CAR with biotinylated BCMA and fluorescent streptavidin

binding result (mouse BCMA)	binding result [9]	Molecule	effector cytokine secretion upon antigen stimulation (anti-BCMA CAR-T cells [1])	NK cell killing of B2Mneg T cells (NK cells [2])	cytokine secretion (NK cells [3])	cytokine secretion (NK cells [4])	proliferation upon allo co-culture with edited T cells (PBMCs; edited (B2Mneg/TCRneg) stimulator T cells)	allo reactivity towards unedited T cells (PBMCs; unedited stimulator T cells, donor 2)	effector cytokine secretion upon antigen stimulation (anti-BCMA CAR-T cells [5])	overall distribution of CD4 and CD8 cells (anti-BCMA CAR-T cells [6])	dose-dependent increase of CD8 positive cells (anti-BCMA CAR-T cells [6]; compared with Lenalidomide untreated cells)	grade 3 or 4 neutropenia [7]	grade 3 or 4 thrombocytopenia [7]	effect on tumor regression and mouse survival compared to no treatment arm (MM.1S tumors)	higher expansion of anti-BCMA CAR-T cells (anti-BCMA CAR-T cells [8]; 0.5 uM to 10 uM Lenalidomide)	senescence marker CD57 expression (anti-BCMA CAR-T cells [8]; all tested concentrations, 10 day culture)
–	–	Nc1cccc2c1CN(C1CCC(=O)NC1=O)C2=O (stereo not shown) [Lenalidomide]	enhanced effector cytokine secretion upon antigen stimulation	did not lead to an increased cell killing of the B2M^neg T cells	minimal changes were observed upon addition of Lenalidomide	Upregulation of secretion of several cytokines	minimal changes upon addition of Lenalidomide to the co-culture	may in some cases enhance allo reactivity towards unedited T cells	enhance effector cytokine secretion upon antigen stimulation	not significantly altered	7-15%	up to 59%	up to 38%	minimal effect on both tumor regression and mouse survival	5-30 fold	reduced expression of CD57
no binding	binds	anti-BCMA CAR (CTX-166b) expressed on CTX120 cells (other, also called CTX120 anti-BCMA CAR; CTX120 CAR) QVQLVQSGAELKKPGASVKVSCKASGNTLTNYVIHWVRQAPGQRLEWMGYILPYNDLTKYSQKFQGRVTITRDKSASTAYMELSSLRSEDTAVYYCTRWDWDGFFDPWGQGTTVTVSSGGGGSGGGGSGGGGSEIVMTQSPATLSVSPGERASISCRASQSLVHSNGNTHLHWYQQRPGQAPRLLIYSVSNRFSEVPARFSGSGSGTDFTLTISSVESEDFAVYYCSQTSHIPYTFGGGTKLEIKSAAAFVPVFLPAKPTTTPAPRPPTPAPTIASQPLSLRPEACRPAAGGAVHTRGLDFACDIYIWAPLAGTCGVLLLSLVITLYCNHRNRKRGRKKLLYIFKQPFMRPVQTTQEEDGCSCRFPEEEEGGCELRVKFSRSADAPAYQQGQNQLYNELNLGRREEYDVLDKRRGRDPEMGGKPRRKNPQEGLYNELQKDKMAEAYSEIGMKGERRRGKGHDGLYQGLSTATKDTYDALHMQALPPR	–	–	–	–	–	–	–	–	–	–	–	–	–	–
